From patent US9376442B2, “Methylpyrrolopyrimidinecarboxamides” (Takeda GmbH, priority 2009, dated 2016)

Tests used:
PDE4B1 = target: T1, PDE4B1 (Homo sapiens, UniProt Q07343); assay: Inhibition of type 4 phosphodiesterase (PDE4) activity, modified SPA test with recombinant PDE4B1 expressed in SF21 insect cells; type: biochemical; conditions: recombinant PDE4B1, 0.5 μM cAMP, read-out: PDE4B1 inhibitory values [measured as −log IC50 (mol/l)] (converted)
T1 construct: made in house; host or cells: SF21 insect cells (baculovirus; pCRBac vector), 1000 x g supernatant of homogenate
Procedure, shortened: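 Modified [3H]cAMP SPA using 1000×g supernatant of SF21 cells expressing recombinant human PDE4B1, in 20 mM Tris pH 7.4, 0.1 mg/ml BSA, 5 mM Mg2+, 0.5 μM cAMP. After 5 min preincubation at 37 °C, 15 min reaction, stopped with SPA beads plus IBMX; IC50 by non-linear regression.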

PDE5A1 = target: T2, PDE5A1 (Homo sapiens, UniProt O76074); assay: Inhibition of type 5 phosphodiesterase (PDE5) activity, modified SPA test with human platelet lysate; type: biochemical; conditions: 0.5 μM cGMP, read-out: PDE5A1 inhibitory values [measured as −log IC50 (mol/l)] (converted)
T2 construct: from tissue; host or cells: human platelets from fresh donor blood (10,000 x g supernatant of sonicated lysate)
Procedure, shortened: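 Enzyme source is lysate from human platelets (10,000 g supernatant). Compound preincubated 5 min at 37° C in Tris pH 7.4 containing 1 μM motapizone and 10 nM of a PDE2 inhibitor. Reaction started with 0.5 μM cGMP ([3H] tracer) and run 15 min; SPA read-out, IC50 by non-linear regression.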

T1 sequence (Q07343 whole entry): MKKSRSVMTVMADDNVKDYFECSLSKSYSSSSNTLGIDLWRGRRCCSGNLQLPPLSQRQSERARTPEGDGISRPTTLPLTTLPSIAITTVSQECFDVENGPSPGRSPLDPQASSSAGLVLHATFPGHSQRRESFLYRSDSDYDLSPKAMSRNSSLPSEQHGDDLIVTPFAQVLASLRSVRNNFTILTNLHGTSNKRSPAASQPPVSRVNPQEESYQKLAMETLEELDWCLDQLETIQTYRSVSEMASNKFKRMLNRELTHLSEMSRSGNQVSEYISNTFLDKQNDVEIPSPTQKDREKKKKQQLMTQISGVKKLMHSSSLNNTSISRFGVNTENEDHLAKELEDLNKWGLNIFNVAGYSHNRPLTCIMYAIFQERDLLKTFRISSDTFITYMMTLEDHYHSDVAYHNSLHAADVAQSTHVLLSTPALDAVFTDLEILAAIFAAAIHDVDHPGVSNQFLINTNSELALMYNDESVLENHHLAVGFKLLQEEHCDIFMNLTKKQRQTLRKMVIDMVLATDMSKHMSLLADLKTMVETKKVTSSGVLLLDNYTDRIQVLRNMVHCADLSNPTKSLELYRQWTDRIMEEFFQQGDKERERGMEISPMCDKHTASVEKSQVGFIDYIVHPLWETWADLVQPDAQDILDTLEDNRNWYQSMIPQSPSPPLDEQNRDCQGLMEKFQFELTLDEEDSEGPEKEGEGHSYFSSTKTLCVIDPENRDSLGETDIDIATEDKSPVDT

| IC50 (PDE4B1) [µM] | IC50 (PDE5A1) [µM] | Structure (SMILES) |
| --- | --- | --- |
| < 0.1 | < 0.001 | CCC(=O)N[C@H]1CC[C@H](NC(=O)c2c(C)[nH]c3c(-c4cc(C(F)F)ccc4OCC4CC4)ncnc23)CC1 [Example P7, 4-[2-(Cyclopropylmethoxy)-5-(difluoromethyl)phenyl]-6-methyl-N-[trans-4-(propanoylamino)cyclohexyl]-5^H-pyrrolo[3,2-d]pyrimidine-7-carboxamide] |
| 0.1 to 1 | < 0.001 | CCC(=O)N1CCC(NC(=O)c2c(C)[nH]c3c(-c4cc(C)ccc4OCC4CC4)nc(C)nc23)CC1 [Example E170, 4-[2-(Cyclopropylmethoxy)-5-methylphenyl]-2,6-dimethyl-N-(1-propanoylpiperidin-4-yl)-5H-pyrrolo[3,2-d]pyrimidine-7-carboxamide] |
| < 0.1 | < 0.001 | CCC(=O)N1CCC(NC(=O)c2c(C)[nH]c3c(-c4cc(C(F)F)ccc4OCC4CC4)ncnc23)CC1 [Example P2, 4-[2-(Cyclopropylmethoxy)-5-(difluoromethyl)phenyl]-6-methyl-N-(1-propanoylpiperidin-4-yl)-5H-pyrrolo[3,2-d]pyrimidine-7-carboxamide] |
| 0.1 to 1 | < 0.001 | CCC(=O)N[C@H]1CC[C@H](NC(=O)c2c(C)[nH]c3c(-c4cc(OC)ccc4OCC4CC4)ncnc23)CC1 [Example E70, 4-[2-(Cyclopropylmethoxy)-5-methoxyphenyl]-6-methyl-N-[trans-4-(propionylamino)cyclohexyl]-5H-pyrrolo[3,2-d]pyrimidine-7-carboxamide] |
| < 0.1 | < 0.001 | Cc1[nH]c2c(-c3cc(C(F)(F)F)ccc3OCC3CC3)ncnc2c1C(=O)N[C@H]1CC[C@@H](NC(=O)[C@H](C)O)CC1 [Example F62, 4-[2-(Cyclopropylmethoxy)-5-(trifluoromethyl)phenyl]-N-(cis-4-{[(2S)-2-hydroxypropanoyl]amino}cyclohexyl)-6-methyl-5H-pyrrolo[3,2-d]pyrimidine-7-carboxamide] |
| < 0.1 | < 0.001 | Cc1ccc(OCC2CC2)c(-c2ncnc3c(C(=O)N[C@H]4CC[C@H](NC(=O)[C@H](C)O)CC4)c(C)[nH]c23)c1 [Example F54, 4-[2-(Cyclopropylmethoxy)-5-methylphenyl]-N-(trans-4-{[(2S)-2-hydroxypropanoyl]amino}cyclohexyl)-6-methyl-5H-pyrrolo[3,2-d]pyrimidine-7-carboxamide] |
| < 0.1 | < 0.001 | CCC(=O)N[C@H]1CC[C@H](NC(=O)c2c(C)[nH]c3c(-c4cc(C(F)F)ccc4OCC4CC4)ncnc23)C[C@@H]1F (relative stereo) [Example P210, 4-[2-(Cyclopropylmethoxy)-5-(difluoromethyl)phenyl]-N-[(1S*,3S*,4S*)-3-fluoro-4-(propanoylamino)cyclohexyl]-6-methyl-5H-pyrrolo[3,2-d]pyrimidine-7-carboxamide] |
| 0.1 to 1 | < 0.001 | COCC(=O)N[C@H]1CC[C@H](NC(=O)c2c(C)[nH]c3c(-c4cc(C(C)C)ccc4OCC4CC4)ncnc23)CC1 [Example E160, 4-[2-(Cyclopropylmethoxy)-5-(propan-2-yl)phenyl]-N-{trans-4-[(methoxyacetyl)amino]cyclohexyl}-6-methyl-5H-pyrrolo[3,2-d]pyrimidine-7-carboxamide] |
| < 0.1 | < 0.001 | CCC(=O)N[C@H]1CC[C@H](NC(=O)c2c(C)[nH]c3c(-c4cc(F)ccc4OCC4CC4)ncnc23)CC1 [Example E42, 4-[2-(Cyclopropylmethoxy)-5-fluorophenyl]-6-methyl-N-[trans-4-(propionylamino)cyclohexyl]-5H-pyrrolo[3,2-d]pyrimidine-7-carboxamide] |
| 0.1 to 1 | < 0.001 | CCC(=O)N1CCC(NC(=O)c2c(C)[nH]c3c(-c4cc(F)ccc4OCC4CC4)ncnc23)CC1 [Example E38, 4-[2-(cyclopropylmethoxy)-5-fluorophenyl]-6-methyl-N-(1-propionylpiperidin-4-yl)-5H-pyrrolo[3,2-d]pyrimidine-7-carboxamide] |
| 0.1 to 1 | < 0.001 | CC(=O)N[C@H]1CC[C@@H](NC(=O)c2c(C)[nH]c3c(-c4cc(C(F)(F)F)ccc4OCC4CC4)ncnc23)CC1 [Example E96, N-[cis-4-(acetylamino)cyclohexyl]-4-[2-(cyclopropylmethoxy)-5-(trifluoromethyl)phenyl]-6-methyl-5H-pyrrolo[3,2-d]pyrimidine-7-carboxamide] |
| < 0.1 | < 0.001 | CCc1ccc(OCC2CC2)c(-c2ncnc3c(C(=O)N[C@H]4CC[C@H](NC(=O)[C@H](C)O)CC4)c(C)[nH]c23)c1 [Example F94, 4-[2-(Cyclopropylmethoxy)-5-ethylphenyl]-N-(trans-4-{[(2S)-2-hydroxypropanoyl]amino}cyclohexyl)-6-methyl-5H-pyrrolo[3,2-d]pyrimidine-7-carboxamide] |
| 0.1 to 1 | 0.001 to 0.01 | CCc1ccc(OCC2CC2)c(-c2ncnc3c(C(=O)N[C@@H]4CN(C(C)=O)C[C@H]4O)c(C)[nH]c23)c1 (relative stereo) [Example E154, N-[(3R*,4R*)-1-Acetyl-4-hydroxypyrrolidin-3-yl]-4-[2-(cyclopropylmethoxy)-5-ethylphenyl]-6-methyl-5H-pyrrolo[3,2-d]pyrimidine-7-carboxamide] |
| < 0.1 | < 0.001 | COCC(=O)N[C@H]1CC[C@H](NC(=O)c2c(C)[nH]c3c(-c4cc(C(F)F)ccc4OCC4CC4)ncnc23)C[C@H]1F (relative stereo) [Example P201, 4-[2-(Cyclopropylmethoxy)-5-(difluoromethyl)phenyl]-N-{(1S*,3R*,4S*)-3-fluoro-4-[(methoxyacetyl)amino]cyclohexyl}-6-methyl-5H-pyrrolo[3,2-d]pyrimidine-7-carboxamide] |
| 0.1 to 1 | < 0.001 | CCC(=O)N[C@H]1CC[C@@H](NC(=O)c2c(C)[nH]c3c(-c4cc(OC)ccc4OCC4CC4)ncnc23)CC1 [Example E73, 4-[2-(Cyclopropylmethoxy)-5-methoxyphenyl]-6-methyl-N-[cis-4-(propionylamino)cyclohexyl]-5H-pyrrolo[3,2-d]pyrimidine-7-carboxamide] |
| 0.1 to 1 | < 0.001 | COCC(=O)N[C@H]1CC[C@@H](NC(=O)c2c(C)[nH]c3c(-c4cc(OC)ccc4OCC4CC4)ncnc23)CC1 [Example E74, 4-[2-(Cyclopropylmethoxy)-5-methoxyphenyl]-N-{cis-4-[(methoxyacetyl)amino]cyclohexyl}-6-methyl-5H-pyrrolo[3,2-d]pyrimidine-7-carboxamide] |
| 0.1 to 1 | < 0.001 | Cc1[nH]c2c(-c3cc(C(C)C)ccc3OCC3CC3)ncnc2c1C(=O)N[C@H]1CC[C@@H](NC(=O)[C@H](C)O)CC1 [Example F101, 4-[2-(Cyclopropylmethoxy)-5-(propan-2-yl)phenyl]-N-(cis-4-{[(2S)-2-hydroxypropanoyl]amino}cyclohexyl)-6-methyl-5H-pyrrolo[3,2-d]pyrimidine-7-carboxamide] |
| < 0.1 | 0.001 to 0.01 | COCC(=O)N1CCC(NC(=O)c2c(C)[nH]c3c(-c4cc(C(F)F)ccc4OCC4CC4)ncnc23)CC1 [Example P3, 4-[2-(Cyclopropylmethoxy)-5-(difluoromethyl)phenyl]-N-[1-(methoxyacetyl)piperidin-4-yl]-6-methyl-5H-pyrrolo[3,2-d]pyrimidine-7-carboxamide] |
| < 0.1 | < 0.001 | COCC(=O)N[C@H]1CC[C@H](NC(=O)c2c(C)[nH]c3c(-c4cc(C(F)F)ccc4OCC4CC4)ncnc23)[C@@H](C)C1 (relative stereo) [Example P141, 4-[2-(Cyclopropylmethoxy)-5-(difluoromethyl)phenyl]-N-{(1S*,2S*,4S*)-4-[(methoxyacetyl)amino]-2-methylcyclohexyl}-6-methyl-5H-pyrrolo[3,2-d]pyrimidine-7-carboxamide] |
| 0.1 to 1 | < 0.001 | COc1ccc(OCC2CC2)c(-c2ncnc3c(C(=O)N[C@H]4CC[C@@H](NC(=O)CO)CC4)c(C)[nH]c23)c1 [Example F45, 4-[2-(Cyclopropylmethoxy)-5-methoxyphenyl]-N-[cis-4-(glycoloylamino)cyclohexyl]-6-methyl-5H-pyrrolo[3,2-d]pyrimidine-7-carboxamide] |
| 0.1 to 1 | 0.001 to 0.01 | Cc1[nH]c2c(-c3cc(F)ccc3OCC3CC3)ncnc2c1C(=O)N[C@H]1CC[C@@H](NC(=O)[C@H](C)O)CC1 [Example F27, 4-[2-(Cyclopropylmethoxy)-5-fluorophenyl]-N-(cis-4-{[(2S)-2-hydroxypropanoyl]amino}cyclohexyl)-6-methyl-5H-pyrrolo[3,2-d]pyrimidine-7-carboxamide] |
| < 0.1 | < 0.001 | COCC(=O)N1CCC(NC(=O)c2c(C)[nH]c3c(-c4cc(C(F)(F)F)ccc4OCC4CC4)ncnc23)CC1 [Example E92, 4-[2-(Cyclopropylmethoxy)-5-(trifluoromethyl)phenyl]-N-[1-(methoxyacetyl)piperidin-4-yl]-6-methyl-5H-pyrrolo[3,2-d]pyrimidine-7-carboxamide] |
| 0.1 to 1 | < 0.001 | CC(=O)N1CCC(NC(=O)c2c(C)[nH]c3c(-c4cc(F)ccc4OCC4CC4)ncnc23)CC1 [Example E37, 4-(2-Cyclopropylmethoxy-5-fluoro-phenyl)-6-methyl-5H-pyrrolo[3,2-d]pyrimidine-7-carboxylic acid (1-acetyl-piperidin-4-yl)-amide] |
